Source: ChEMBL document CHEMBL1201862, “PubChem BioAssay data set” (2004)
Calls of active or inactive are those of the source.

Tests used:
[1] = target: T1, Mitochondrial peptide methionine sulfoxide reductase (Bos taurus, UniProt P54149); type: functional;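 further: absorbance read-out, biochemical high-throughput dose-response screen for MsrA inhibitors, confirmatory; recombinant bovine MsrA coupled to E. coli TrxB with NADPH and selenocystamine; potency is for inhibitors of MsrA activity on DMSO substrate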
T1 sequence (P54149 whole entry): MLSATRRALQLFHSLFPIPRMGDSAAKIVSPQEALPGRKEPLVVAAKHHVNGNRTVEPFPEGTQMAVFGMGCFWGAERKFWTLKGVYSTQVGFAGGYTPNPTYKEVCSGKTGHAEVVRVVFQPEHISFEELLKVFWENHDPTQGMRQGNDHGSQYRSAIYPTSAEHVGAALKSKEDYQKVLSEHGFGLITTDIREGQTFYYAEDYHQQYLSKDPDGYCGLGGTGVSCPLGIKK

[2] = inhibitors of firefly luciferase expression or activity, dose response, H4 neuroglioma cells, luminescence (AID 1990); type: functional, cell-based
[3] = Luminescence Cell-Based Dose Response HTS to Identify Inhibitors of 5'UTR Stem-Loop Driven Prion Protein mRNA Translation in H4 Neuroglioblastoma Cells. [Related pubchem assays: 1827 (Project Summary), 1813 (Primary HTS)]; type: functional
HEK293 = assay: inhibitors of LMP1-driven NF-kB reporter, dose response, cell-based, HEK293, luciferase, cherry-pick (AID 588343); type: functional; settings: Homo sapiens
[4] = inhibitors of SNCA 5'UTR-driven reporter translation, confirmation, H4 neuroglioma cells, luminescence (AID 1988); type: functional, cell-based
Orexin receptor type 2 [5] = target: T2, Orexin receptor type 2 (Homo sapiens, UniProt O43614); assay: Counterscreen assay for antagonists of the orexin 1 receptor (OX1R; HCRTR1): Fluorescence-based cell-based dose response assay for antagonists of the orexin 2 receptor (OX2R; HCRTR2), run by assay provider.; type: functional
T2 sequence (O43614 whole entry): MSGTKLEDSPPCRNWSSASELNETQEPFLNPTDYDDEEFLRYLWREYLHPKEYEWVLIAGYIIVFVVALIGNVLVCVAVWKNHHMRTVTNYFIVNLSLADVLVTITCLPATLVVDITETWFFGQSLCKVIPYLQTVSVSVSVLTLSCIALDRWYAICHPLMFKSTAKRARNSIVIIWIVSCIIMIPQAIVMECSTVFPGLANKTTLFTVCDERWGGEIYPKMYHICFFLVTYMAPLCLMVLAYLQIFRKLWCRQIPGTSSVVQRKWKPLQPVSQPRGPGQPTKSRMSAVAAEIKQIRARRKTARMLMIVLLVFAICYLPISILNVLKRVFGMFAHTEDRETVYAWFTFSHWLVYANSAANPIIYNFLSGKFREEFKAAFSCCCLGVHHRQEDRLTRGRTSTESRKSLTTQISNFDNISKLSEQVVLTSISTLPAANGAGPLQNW

[6] = (§1) Counterscreen for antagonists of the orexin 1 receptor (OX1R; HCRTR1): Fluorescence-based cell-based high throughput dose response assay to identify antagonists of the parental CHO cell line. [Related pubchem assays (depositor defined):AID434989, AID435008, AID463079, AID485270, AID492963, AID492964, AID492965, AID493232, AID504699, AID504701]; type: functional
Orexin receptor type 2 [7] = target: T2, Orexin receptor type 2; assay: Counterscreen assay for antagonists of the orexin 1 receptor (OX1R; HCRTR1): Homogeneous Time Resolved Fluorescence (HTRF)-based cell-based dose response assay for antagonists of the orexin 2 receptor (OX2R; HCRTR2), run by assay provider.; type: functional
[8] = target: T3, Orexin/Hypocretin receptor type 1 (Homo sapiens, UniProt O43613); assay: (§2) Fluorescence-based cell-based high throughput dose response assay for antagonists of the orexin 1 receptor (OX1R; HCRTR1). [Related pubchem assays (depositor defined):AID434989, AID435008, AID463079, AID485270, AID492963, AID492964, AID492965, AID493232, AID504717, AID504718]; type: functional
T3 sequence (O43613 whole entry): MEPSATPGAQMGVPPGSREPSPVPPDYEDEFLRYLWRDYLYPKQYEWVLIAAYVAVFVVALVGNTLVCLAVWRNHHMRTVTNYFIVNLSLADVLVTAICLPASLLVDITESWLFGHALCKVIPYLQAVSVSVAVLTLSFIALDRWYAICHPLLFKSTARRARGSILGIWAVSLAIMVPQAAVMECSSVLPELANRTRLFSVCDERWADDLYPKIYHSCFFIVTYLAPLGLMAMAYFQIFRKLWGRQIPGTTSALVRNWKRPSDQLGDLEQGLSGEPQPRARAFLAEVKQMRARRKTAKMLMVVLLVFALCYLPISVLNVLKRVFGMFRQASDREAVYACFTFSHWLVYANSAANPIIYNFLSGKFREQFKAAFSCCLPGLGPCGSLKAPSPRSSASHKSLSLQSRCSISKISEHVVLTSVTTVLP

[9] = target: T4, Endoribonuclease toxin MazF (Escherichia coli K-12, UniProt P0AE70); assay: MazF toxin RNase activators, dose response, biochemical, fluorescence, single-stranded RNA substrate, uHTS hits (AID 588481); type: functional
T4 sequence (P0AE70 whole entry): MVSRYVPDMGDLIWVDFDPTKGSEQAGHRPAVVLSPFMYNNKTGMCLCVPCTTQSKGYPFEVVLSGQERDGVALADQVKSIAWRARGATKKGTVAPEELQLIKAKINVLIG

[10] = target: T3, Orexin/Hypocretin receptor type 1; assay: as §2, with “Homogeneous Time Resolved Fluorescence (HTRF)-based” for “Fluorescence-based”; type: functional
CHO-K1 = assay: as §1, with “Homogeneous time resolved fluorescence (HTRF)-based” for “Fluorescence-based”, “cell-based” for “cell-based high throughput”, “CHO-K1” for “CHO”; type: functional; settings: Cricetulus griseus;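 further: potency for inhibition of ATP-stimulated IP1 production as antagonists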
[11] = target: T4, Endoribonuclease toxin MazF; assay: fluorescent RNA oligo signal without MazF, dose response, counter-screen for MazEF activator project, biochemical, fluorescence, single-stranded RNase substrate (AID 588502); type: functional
[12] = HEp-2 cell cytotoxicity, dose response, cytotoxicity control for RSV inhibitor project, HTS (AID 2410); type: functional; settings: human respiratory syncytial virus
[13] = target: T5, Calpain-2 catalytic subunit (Sus scrofa, UniProt P43367); assay: pig calpain II inhibitor potency, dose response, biochemical, fluorogenic peptide substrate (AID 1420); type: functional
T5 sequence (P43367 whole entry): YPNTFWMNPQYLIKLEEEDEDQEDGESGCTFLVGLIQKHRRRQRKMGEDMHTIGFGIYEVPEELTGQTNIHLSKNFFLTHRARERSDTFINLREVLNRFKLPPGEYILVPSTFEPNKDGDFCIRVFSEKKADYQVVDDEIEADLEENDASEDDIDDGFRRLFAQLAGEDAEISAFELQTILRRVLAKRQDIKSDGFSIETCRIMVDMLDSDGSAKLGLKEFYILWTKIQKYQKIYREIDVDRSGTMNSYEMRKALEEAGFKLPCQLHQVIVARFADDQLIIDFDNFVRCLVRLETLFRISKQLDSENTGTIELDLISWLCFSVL

[14] = NIH-3T3 fibroblast cytotoxicity, dose response, cytotoxicity control, cell-based, fluorescence, Alamar Blue, secondary assay (AID 2327); type: functional;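 further: NIH-3T3 mouse fibroblasts cultured with fluconazole at 8 µg/mL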
[15] = C. albicans growth with fluconazole, confirmation, fluorescence, retest (AID 2467); type: functional, cell-based
[16] = target: ATP-dependent molecular chaperone HSP82 (Candida albicans (strain WO-1) (Yeast), UniProt C4YTQ8); assay: loss of DOC-induced GRE-beta-galactosidase reporter signal, dose response, Hsp90 inhibitor project, S. cerevisiae, luminescence (AID 2400); type: functional, cell-based;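 further: beta-galactosidase luminescence from glucocorticoid response element reporter as proxy for Hsp90 function; inhibitor potency where signal loss means Hsp90 inhibition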
Sequence of ATP-dependent molecular chaperone HSP82 (C4YTQ8 whole entry): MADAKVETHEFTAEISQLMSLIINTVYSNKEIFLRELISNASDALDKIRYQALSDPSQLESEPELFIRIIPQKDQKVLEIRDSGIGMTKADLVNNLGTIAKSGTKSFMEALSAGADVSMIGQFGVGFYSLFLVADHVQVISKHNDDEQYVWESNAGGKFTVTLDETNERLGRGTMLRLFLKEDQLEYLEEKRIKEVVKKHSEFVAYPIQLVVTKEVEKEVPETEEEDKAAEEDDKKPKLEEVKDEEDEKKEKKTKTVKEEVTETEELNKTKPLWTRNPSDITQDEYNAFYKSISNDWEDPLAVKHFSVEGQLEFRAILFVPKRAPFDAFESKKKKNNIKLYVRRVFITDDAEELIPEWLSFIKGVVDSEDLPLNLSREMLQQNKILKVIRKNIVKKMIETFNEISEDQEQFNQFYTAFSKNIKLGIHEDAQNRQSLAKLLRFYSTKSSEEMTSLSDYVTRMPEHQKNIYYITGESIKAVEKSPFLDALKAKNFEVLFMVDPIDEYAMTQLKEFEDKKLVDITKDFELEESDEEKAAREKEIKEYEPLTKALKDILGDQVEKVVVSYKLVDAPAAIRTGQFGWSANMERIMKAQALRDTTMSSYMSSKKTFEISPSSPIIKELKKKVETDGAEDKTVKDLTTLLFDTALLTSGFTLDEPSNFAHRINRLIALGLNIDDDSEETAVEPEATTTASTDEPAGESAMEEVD

[17] = target: T6, Serine/threonine-protein phosphatase (Candida dubliniensis (strain CD36 / CBS 7987 / NCPF 3949 / NRRLY-17841) (Yeast), UniProt B9W6M3); assay: calcineurin pathway inhibitors in yeast reporter, dose response, S. cerevisiae, CDRE-lacZ, luminescence, secondary (AID 2388); type: functional, cell-based;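 further: yeast reporter cells carrying a calcineurin-responsive lacZ construct stimulated with calcium chloride; luminescent beta-galactosidase reporter signal in whole cells rather than isolated phosphatase activity; potency for inhibition where a drop in reporter signal means calcineurin blockade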
T6 sequence (B9W6M3 whole entry): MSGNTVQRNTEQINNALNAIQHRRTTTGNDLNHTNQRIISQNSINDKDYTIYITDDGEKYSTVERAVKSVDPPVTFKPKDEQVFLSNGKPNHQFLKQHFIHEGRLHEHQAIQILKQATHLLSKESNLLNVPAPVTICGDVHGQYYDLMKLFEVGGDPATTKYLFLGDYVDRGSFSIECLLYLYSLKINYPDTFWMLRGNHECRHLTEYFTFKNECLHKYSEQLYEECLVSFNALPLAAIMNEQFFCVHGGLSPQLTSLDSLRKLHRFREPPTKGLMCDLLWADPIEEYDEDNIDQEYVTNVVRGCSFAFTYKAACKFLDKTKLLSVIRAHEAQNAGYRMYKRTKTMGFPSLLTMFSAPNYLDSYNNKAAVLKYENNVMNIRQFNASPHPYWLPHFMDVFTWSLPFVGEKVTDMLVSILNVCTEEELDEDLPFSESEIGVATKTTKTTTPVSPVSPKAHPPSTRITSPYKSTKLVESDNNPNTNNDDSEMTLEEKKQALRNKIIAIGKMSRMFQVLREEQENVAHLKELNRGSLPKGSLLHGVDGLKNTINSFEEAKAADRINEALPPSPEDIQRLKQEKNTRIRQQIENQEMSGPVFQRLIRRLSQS

[18] = target: Ras and Rab interactor 1/Tyrosine-protein kinase ABL1 (Homo sapiens, UniProt P00519+Q13671); type: functional;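 further: biochemical TR-FRET dose-response test measuring inhibition of binding between Rin1 and Abl proteins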
Sequence of Ras and Rab interactor 1/Tyrosine-protein kinase ABL1 (P00519 whole entry): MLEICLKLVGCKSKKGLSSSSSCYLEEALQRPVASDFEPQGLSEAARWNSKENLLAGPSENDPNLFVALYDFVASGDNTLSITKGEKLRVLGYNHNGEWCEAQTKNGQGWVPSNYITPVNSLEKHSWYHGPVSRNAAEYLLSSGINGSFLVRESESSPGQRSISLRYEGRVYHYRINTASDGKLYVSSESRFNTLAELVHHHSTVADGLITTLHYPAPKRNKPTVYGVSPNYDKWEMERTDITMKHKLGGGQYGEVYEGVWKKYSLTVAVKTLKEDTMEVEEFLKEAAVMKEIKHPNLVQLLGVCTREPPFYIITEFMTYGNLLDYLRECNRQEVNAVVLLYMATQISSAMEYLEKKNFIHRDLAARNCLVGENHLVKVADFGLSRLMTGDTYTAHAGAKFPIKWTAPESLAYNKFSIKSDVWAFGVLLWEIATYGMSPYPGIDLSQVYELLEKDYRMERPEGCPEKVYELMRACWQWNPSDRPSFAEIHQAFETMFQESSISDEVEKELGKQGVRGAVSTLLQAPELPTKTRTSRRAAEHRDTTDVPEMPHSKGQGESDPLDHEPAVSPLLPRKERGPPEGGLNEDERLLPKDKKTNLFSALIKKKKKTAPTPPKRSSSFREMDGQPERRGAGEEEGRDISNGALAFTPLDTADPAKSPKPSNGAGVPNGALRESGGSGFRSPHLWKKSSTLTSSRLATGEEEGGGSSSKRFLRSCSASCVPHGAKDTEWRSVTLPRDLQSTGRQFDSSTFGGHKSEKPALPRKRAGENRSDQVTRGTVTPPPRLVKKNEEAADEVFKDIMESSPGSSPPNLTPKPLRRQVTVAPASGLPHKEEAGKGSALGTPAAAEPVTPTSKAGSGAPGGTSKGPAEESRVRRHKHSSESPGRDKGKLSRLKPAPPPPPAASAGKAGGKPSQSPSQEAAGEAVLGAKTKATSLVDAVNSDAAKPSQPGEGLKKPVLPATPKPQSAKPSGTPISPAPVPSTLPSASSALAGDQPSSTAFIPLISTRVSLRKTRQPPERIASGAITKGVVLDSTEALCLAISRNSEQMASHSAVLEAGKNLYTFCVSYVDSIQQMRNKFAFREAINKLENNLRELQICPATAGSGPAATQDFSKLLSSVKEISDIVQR
Sequence of Ras and Rab interactor 1/Tyrosine-protein kinase ABL1 (Q13671 whole entry): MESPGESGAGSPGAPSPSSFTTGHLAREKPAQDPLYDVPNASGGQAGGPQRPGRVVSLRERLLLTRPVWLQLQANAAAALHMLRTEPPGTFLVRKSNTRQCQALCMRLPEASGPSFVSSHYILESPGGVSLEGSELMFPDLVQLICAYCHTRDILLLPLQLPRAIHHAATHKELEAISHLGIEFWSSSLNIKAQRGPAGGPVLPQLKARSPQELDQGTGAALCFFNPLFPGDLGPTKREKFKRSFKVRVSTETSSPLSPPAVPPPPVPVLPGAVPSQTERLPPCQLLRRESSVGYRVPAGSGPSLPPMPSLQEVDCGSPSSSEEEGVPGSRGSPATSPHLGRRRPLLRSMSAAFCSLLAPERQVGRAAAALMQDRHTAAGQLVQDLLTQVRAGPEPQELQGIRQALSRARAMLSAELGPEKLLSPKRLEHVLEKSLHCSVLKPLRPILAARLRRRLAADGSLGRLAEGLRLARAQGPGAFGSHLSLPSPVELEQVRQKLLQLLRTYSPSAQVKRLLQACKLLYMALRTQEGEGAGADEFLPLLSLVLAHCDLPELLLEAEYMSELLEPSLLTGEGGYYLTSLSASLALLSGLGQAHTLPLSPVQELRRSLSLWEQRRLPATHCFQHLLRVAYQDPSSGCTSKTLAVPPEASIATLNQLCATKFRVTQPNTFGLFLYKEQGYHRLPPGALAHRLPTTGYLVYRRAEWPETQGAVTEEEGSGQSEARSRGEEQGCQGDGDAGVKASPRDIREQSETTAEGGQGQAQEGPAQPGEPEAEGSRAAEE

[19] = target: T7, DNA repair and recombination protein RAD54-like (Homo sapiens, UniProt Q92698); assay: inhibitors of human RAD54 branch migration, confirmation, biochemical, fluorescence, cherry-picked samples, dose series (AID 651657); type: functional
T7 sequence (Q92698 whole entry): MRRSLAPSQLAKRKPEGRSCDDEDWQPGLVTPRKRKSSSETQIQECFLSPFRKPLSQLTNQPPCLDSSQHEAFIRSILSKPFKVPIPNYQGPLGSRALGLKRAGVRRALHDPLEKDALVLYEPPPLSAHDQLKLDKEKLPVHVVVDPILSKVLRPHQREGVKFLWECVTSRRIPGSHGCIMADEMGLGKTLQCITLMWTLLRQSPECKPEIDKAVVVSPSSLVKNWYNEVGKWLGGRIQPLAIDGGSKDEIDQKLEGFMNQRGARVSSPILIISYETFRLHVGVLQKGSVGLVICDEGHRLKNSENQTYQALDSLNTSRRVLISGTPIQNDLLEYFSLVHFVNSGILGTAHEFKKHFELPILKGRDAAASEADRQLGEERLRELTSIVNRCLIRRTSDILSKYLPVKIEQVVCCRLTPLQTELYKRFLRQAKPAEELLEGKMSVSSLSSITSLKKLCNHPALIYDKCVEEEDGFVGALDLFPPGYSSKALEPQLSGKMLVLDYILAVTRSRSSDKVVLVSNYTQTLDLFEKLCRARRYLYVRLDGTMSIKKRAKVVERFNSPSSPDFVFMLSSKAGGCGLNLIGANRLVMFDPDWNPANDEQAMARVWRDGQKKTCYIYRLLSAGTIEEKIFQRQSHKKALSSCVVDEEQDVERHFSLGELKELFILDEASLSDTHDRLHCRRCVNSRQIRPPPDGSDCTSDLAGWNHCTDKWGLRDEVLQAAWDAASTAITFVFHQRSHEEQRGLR

[20] = inhibitors of intracellular T. cruzi replication, confirmation, NIH3T3 host cells, beta-gal luminescence (AID 2044); type: functional, cell-based;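 further: intracellular parasites grown in NIH/3T3 mouse fibroblasts as host cells; luminescent beta-galactosidase reporter signal from transgenic T. cruzi replicating inside host cells; inhibitors lower the luminescence signal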
[21] = cytotoxicity toward NIH3T3 fibroblasts, dose response, counter-screen, cell-based, ATP luminescence, mouse fibroblasts (AID 2010); type: functional;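 further: cells exposed to compound for about 90 hours before reading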
[22] = HepG2 cell cytotoxicity, dose response, cytotoxicity control for Shn3 inhibitor project, CellTiter-Glo, cherry-picked (AID 624134); type: functional, cell-based
[23] = control 3'UTR Renilla luciferase suppression, dose response, counter-screen for Shn3 inhibitor project, cell-based, Clone20-Shn3RL, cherry-picked (AID 624133); type: functional
[24] = Shn3 3'UTR reporter inhibitors, dose response, cell-based, Clone20 osteoblasts, firefly luciferase, cherry-picked (AID 624132); type: functional;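 further: firefly luciferase luminescence from reporter carrying the Shn3 3'UTR in osteoblasts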

O=C(NN=Cc1sc(=O)[n-]c1-[n+]1ccc(-c2ccncc2)cc1)c1ccccc1
IC50 [1]: 155 µM (inactive)

Oc1c2c(nc3c(-c4cccc(Br)c4)cnn13)CCCC2
EC50 [2]: 11.2 µM (active) | EC50 [3]: 8.39 µM (active) | AC50 (HEK293): 4.49 µM (active) | EC50 [4]: 9.2 µM (active)

Cc1cccc2c3nc4ccccc4nc3n(C)c12
IC50 (Orexin receptor type 2 [5]): 11 µM (inactive) | IC50 [6]: > 49.7 µM (inactive) | IC50 (Orexin receptor type 2 [7]): 5.76 µM (active) | IC50 [8]: 8.12 µM (active) | EC50 [9]: > 99 µM (inactive) | IC50 [10]: 1.33 µM (active) | IC50 (CHO-K1): > 66.2 µM (inactive) | EC50 [11]: 51.9 µM (inactive) | CC50 [12]: > 50 µM (active)

COCCCNC(=O)CCC(=O)NNc1nc2ccccc2c2nc(-c3ccccc3)nn12
IC50 (Orexin receptor type 2 [5]): > 88.8 µM (inactive) | IC50 [6]: > 49.7 µM (inactive) | IC50 (Orexin receptor type 2 [7]): > 50 µM (inactive) | IC50 [8]: 11.7 µM (inactive) | IC50 [10]: 3.55 µM (active) | IC50 (CHO-K1): > 66.2 µM (inactive)

Cc1ccc(NC(=O)c2noc(C(C)C)c2[N+](=O)[O-])cc1
IC50 [13]: > 50 µM (not active) | EC50 [14]: > 150 µM (inconclusive) | EC50 [15]: 3.18 µM (active) | EC50 [16]: > 160 µM (inactive) | EC50 [17]: > 180 µM (inactive)

OCCN1CCN(c2ncnc3c2sc2nc(N4CCOCC4)c4c(c23)CCC4)CC1
IC50 [18]: 24.2 µM (inactive) | AC50 [19]: 11.4 µM (active) | EC50 [20]: 0.241 µM (active) | EC50 [21]: > 60 µM (not active)

COc1ccccc1NC(=O)[C@@H]1CCCN1S(=O)(=O)c1ccc(Cl)cc1
IC50 (Orexin receptor type 2 [5]): 11 µM (inactive) | IC50 [6]: > 49.7 µM (inactive) | IC50 (Orexin receptor type 2 [7]): 6.28 µM (active) | IC50 [8]: 13.2 µM (inactive) | IC50 [10]: 1.21 µM (active) | IC50 (CHO-K1): > 66.2 µM (inactive)

CN(C(=O)c1ccc(NC(=O)Cc2cccc(NC(=O)C3CCN(C(=O)C4CCCCC4)CC3)c2)cc1)C1CC1
IC50 [18]: 18.9 µM (inactive)

Cn1ncc(Cl)c1C(=O)NC1CCCC1
AC50 (HEK293): > 350 µM (inactive)

Cn1cnc([N+](=O)[O-])c1S(=O)(=O)Oc1ccccc1
AC50 [22]: 42.3 µM (active) | IC50 [1]: 48 µM (inactive) | AC50 [23]: 24.1 µM (active) | AC50 [24]: 3.83 µM (active)
